Test results published in ChEMBL document CHEMBL3745676, “Alkylamino derivatives of N-benzylpyrazine-2-carboxamide: synthesis and antimycobacterial evaluation” (Medchemcomm, 2015).
Converted amounts (≈) assume the structure as drawn. The source made the active and inactive calls. The rule behind the calls is not given here.

Tests used:
[1] = Lipophilicity, logK of the compound by RP-HPLC analysis; format: physicochemical
[2] = system: Mycobacterium tuberculosis; test: Inhibition of mycolic acid synthesis in [1,2-14C]-acetate-labelled Mycobacterium tuberculosis H37Ra at 5 ug/ml preincubated for 20 hrs followed by radiolabelling measured after 24 hrs by autoradiography; format: functional, organism-based
Mycobacterium kansasii = test: Antimycobacterial activity against Mycobacterium kansasii CNCTC My 235/80 incubated for 5 to 7 days by microplate alamar blue assay; format: functional
[3] = system: Mycobacterium tuberculosis; test: Antimycobacterial activity against Mycobacterium tuberculosis H37Rv CNCTC My 331/88 incubated for 10 to 14 days by microplate alamar blue assay; format: functional
[4] = system: Mycobacterium tuberculosis; test: Effect on short chain fatty acids production in [1,2-14C]-acetate-labelled Mycobacterium tuberculosis H37Ra at 5 ug/ml preincubated for 20 hrs followed by radiolabelling measured after 24 hrs by autoradiography; format: functional, organism-based
[5] = system: Mycobacterium tuberculosis; test: Antimycobacterial activity against Mycobacterium tuberculosis H37Rv; format: functional
Mycobacterium avium [6] = test: Antimycobacterial activity against Mycobacterium avium CNCTC My 152/73 after 5 days by microplate alamar blue assay; format: functional; conditions: CNCTC My 152/73, 120 h
Mycobacterium avium [7] = test: Antimycobacterial activity against Mycobacterium avium CNCTC My 80/72 after 5 days by microplate alamar blue assay; format: functional; conditions: CNCTC My 80/72, 120 h
Escherichia coli = test: Antibacterial activity against Escherichia coli CCM 4517 after 24 to 48 hrs by broth microdilution method; format: functional
[8] = Cytotoxicity against MDCK cells assessed as cell viability after 4 to 6 days by formazan-based MTS assay; parameters: species or system Canis lupus familiaris; conditions: dog
Lichtheimia corymbifera = test: Antifungal activity against Lichtheimia corymbifera 272 after 24 to 48 hrs by broth microdilution method; format: functional
[9] = Cytotoxicity against CRFK cells assessed as cell viability after 4 to 6 days by formazan-based MTS assay; parameters: species or system Felis catus; conditions: cat
Aspergillus fumigatus = test: Antifungal activity against Aspergillus fumigatus 231 after 24 to 48 hrs by broth microdilution method; format: functional
[10] = Cytotoxicity against HEL cells assessed as cell viability after 4 to 6 days by microscopic analysis; format: cell-based; conditions: human
[11] = Cytotoxicity against MDCK cells assessed as cell viability after 4 to 6 days by microscopic analysis; format: cell-based, Canis lupus familiaris; conditions: dog
Pseudomonas aeruginosa = test: Antibacterial activity against Pseudomonas aeruginosa CCM 1961 after 24 to 48 hrs by broth microdilution method; format: functional
Candida albicans = test: Antifungal activity against Candida albicans ATCC 44859 after 24 to 48 hrs by broth microdilution method; format: functional
Nakaseomyces glabratus = test: Antifungal activity against Candida glabrata 20/I after 24 to 48 hrs by broth microdilution method; format: functional
Klebsiella pneumoniae [12] = test: Antibacterial activity against Klebsiella pneumoniae D 11750/08 after 24 to 48 hrs by broth microdilution method; format: functional
[13] = system: Trichophyton mentagrophytes; test: Antifungal activity against Trichophyton mentagrophytes 445 after 72 to 120 hrs by broth microdilution method; format: functional
Klebsiella pneumoniae [14] = test: Antibacterial activity against ESBL positive Klebsiella pneumoniae J 14368/08 after 24 to 48 hrs by broth microdilution method; format: functional
[15] = system: Mycobacterium tuberculosis; test: Potency index, ratio of pyrazinamide MIC to compound MIC for Mycobacterium tuberculosis H37Rv CNCTC My 331/88; format: functional
Trichosporon asahii = test: Antifungal activity against Trichosporon asahii 1188 after 24 to 48 hrs by broth microdilution method; format: functional
Influenza A virus [16] = test: Antiviral activity against Influenza A virus (A/Puerto Rico/8/(H1N1)) assessed as inhibition of virus-induced cytopathic effect after 3 to 6 days by microscopic analysis; format: functional, organism-based
Candida tropicalis = test: Antifungal activity against Candida tropicalis 156 after 24 to 48 hrs by broth microdilution method; format: functional
[17] = Cytotoxicity against human HeLa cells assessed as cell viability after 4 to 6 days by microscopic analysis; format: cell-based
Influenza A virus [18] = test: Antiviral activity against Influenza A virus (A/Puerto Rico/8/(H1N1)) assessed as inhibition of virus-induced cytopathic effect after 3 to 6 days by formazan-based MTS assay; format: functional, organism-based
Pichia kudriavzevii = test: Antifungal activity against Candida krusei E28 after 24 to 48 hrs by broth microdilution method; format: functional
[19] = Cytotoxicity against African green monkey Vero cells assessed as cell viability after 4 to 6 days by microscopic analysis; format: cell-based; conditions: chlorocebus sabaeus
Staphylococcus aureus [20] = test: Antibacterial activity against methicillin-resistant Staphylococcus aureus H 5996/08 after 24 to 48 hrs by broth microdilution method; format: functional, organism-based
Staphylococcus aureus [21] = test: Antibacterial activity against Staphylococcus aureus after 24 to 48 hrs by broth microdilution method; format: functional
[22] = Inhibition of Mycobacterium tuberculosis InhA
[23] = system: Respiratory syncytial virus; test: Antiviral activity against Respiratory syncytial virus infecetd in human HeLa cells assessed as inhibition of virus replication after 3 to 6 days; format: functional, organism-based

Compound | log K [1] | MIC (Mycobacterium kansasii) | MIC [3] [µM] | MIC (Mycobacterium avium [6]) [µg/mL] | MIC (Mycobacterium avium [7]) [µg/mL] | MIC95 (Escherichia coli) [µM] | CC50 [8] [µM] | MIC (Lichtheimia corymbifera) [µM] | CC50 [9] [µM] | MIC (Aspergillus fumigatus) [µM] | MCC [10] [µM] | MCC [11] [µM] | MIC95 (Pseudomonas aeruginosa) [µM] | MIC (Candida albicans) [µM] | MIC (Nakaseomyces glabratus) [µM] | MIC95 (Klebsiella pneumoniae [12]) [µM] | MIC [13] [µM] | MIC95 (Klebsiella pneumoniae [14]) [µM] | Ratio [15] | MIC (Trichosporon asahii) [µM] | further results
NNC(=O)c1ccncc1 [ISONIAZID] | -0.743 | 11 µM | 2.8 (≈ 0.384 µg/mL) |  |  |  |  |  |  |  |  |  |  |  |  |  |  |  |  |  | inhibition [2]: Active; Activity [4]: inactive
O=C(NCc1ccccc1)c1cncc(Cl)n1 | 0.2 | 404 µM |  | > 100 | > 100 |  |  |  |  |  |  |  |  |  |  |  |  |  |  |  | MIC [5]: 50 µM (≈ 12.4 µg/mL)
O=C(NCc1ccccc1)c1cnc(Cl)cn1 | 0.186 | 100 µg/mL |  | > 100 | > 100 |  |  |  |  |  |  |  |  |  |  |  |  |  |  |  | MIC [5]: 100 µM (≈ 24.8 µg/mL)
CCCCCCCNc1cncc(C(=O)NCc2ccccc2)n1 | 1.207 | 38 µM | 10 (≈ 3.26 µg/mL) | > 100 | > 100 | > 500 | 2.4 | > 500 | > 100 | > 500 | > 100 | 4 | > 500 | > 500 | > 500 | > 500 | > 500 | > 500 | <=20 | > 500 | inhibition [2]: inactive; EC50 (Influenza A virus [16]): > 100 µM; MIC (Candida tropicalis): > 500 µM; MCC [17]: > 100 µM; EC50 (Influenza A virus [18]): > 100 µM; MIC (Pichia kudriavzevii): > 500 µM; MCC [19]: > 100 µM; Activity (Staphylococcus aureus [20]): inactive
CCCCCCCCNc1cncc(C(=O)NCc2ccccc2)n1 | 1.431 | 18 µM | 9.2 (≈ 3.13 µg/mL) | > 100 | > 100 | > 500 | 1.3 | > 500 | > 100 | > 500 | > 100 | 4 | > 500 | > 500 | > 500 | > 500 | > 500 | > 500 | <=20 | > 500 | EC50 (Influenza A virus [16]): > 100 µM; MIC (Candida tropicalis): > 500 µM; MCC [17]: > 100 µM; EC50 (Influenza A virus [18]): > 100 µM; MIC (Pichia kudriavzevii): > 500 µM; MCC [19]: > 100 µM; MIC95 (Staphylococcus aureus [21]): 3.9 µM (≈ 1.33 µg/mL); Activity (Staphylococcus aureus [20]): inactive
CCCCCCCCc1ccc(Oc2ccccc2)c(O)c1 |  |  |  |  |  |  |  |  |  |  |  |  |  |  |  |  |  |  |  |  | IC50 [22]: 0.005 µM
CCCCCCCNc1cnc(C(=O)NCc2ccccc2)cn1 | 1.089 | > 100 µg/mL | 10 (≈ 3.26 µg/mL) | > 100 | > 100 | > 500 | > 100 | > 500 | > 100 | > 500 | > 100 | > 100 | > 500 | > 500 | > 500 | > 500 | > 500 | > 500 | <=20 | > 500 | EC50 (Influenza A virus [16]): 21 µM; MIC (Candida tropicalis): > 500 µM; MCC [17]: > 100 µM; EC50 (Influenza A virus [18]): 47 µM; MIC (Pichia kudriavzevii): > 500 µM; MCC [19]: ≥ 100 µM
CCCCCCNc1cnc(C(=O)NCc2ccccc2)cn1 | 0.859 | > 100 µg/mL | 10 (≈ 3.12 µg/mL) | > 100 | > 100 | > 500 | > 100 | > 500 | > 100 | > 500 | > 100 | > 100 | > 500 | > 500 | > 500 | > 500 | > 500 | > 500 | <=20 | > 500 | EC50 (Influenza A virus [16]): 52 µM; MIC (Candida tropicalis): > 500 µM; MCC [17]: > 100 µM; EC50 (Influenza A virus [18]): 62 µM; MIC (Pichia kudriavzevii): > 500 µM; MCC [19]: ≥ 100 µM
CCCCCCCCNc1cnc(C(=O)NCc2ccccc2)cn1 | 1.312 | > 100 µg/mL | 4.6 (≈ 1.57 µg/mL) | > 100 | > 100 | > 500 | 62 | > 500 | 28 | > 500 | 100 | ≥ 20 | > 500 | > 500 | > 500 | > 500 | > 500 | > 500 | <=20 | > 500 | inhibition [2]: inactive; EC50 (Influenza A virus [16]): 1.1 µM; EC50 [23]: 8.9 µM; MIC (Candida tropicalis): > 500 µM; MCC [17]: 100 µM; EC50 (Influenza A virus [18]): > 100 µM; MIC (Pichia kudriavzevii): > 500 µM; MCC [19]: 20 µM
